Experiments:
human GLP1R (hGLP1R) = human GLP1R (hGLP1R) (Homo sapiens, UniProt P43220); experiment: Human GLP1R cAMP agonist assay (GloSensor); format: cell-based; conditions: HEK293-SNAP-hGLP1R-GloSensor cells; for Emax: cAMP, normalized to GLP1(7-36) maximum response, read-out: Emax mean; for EC50: intracellular cAMP, mean n=3 where SEM is given
Experimental: Compounds 1 to 31 were tested in the following cellular assays that measure the intracellular cAMP concentration, beta-arrestin recruitment and receptor internalization. The cAMP is generated by the activation of GLP1R. The cAMP data obtained is shown in Table 1 (where S.E.M. is included, mean n=3 independent experiments+/−S.E.M). Beta-arrestin is recruited upon activation of GLP1R and the data obtained are shown in Table 2 (mean n=2 independent experiments, +/−S.D). The extent to which the GLP1R is internalized into the cell and away from the plasma membrane following activation is also shown in Table 2 (mean n=2 independent experiments, +/−S.D). EC50 for each assay is defined as the concentration of the compound that leads to half of the maximum response (after baseline correction). Emax is defined as the maximum response observed for the test compound, normalized to the maximum response observed for the endogenous ligand (GLP1(7-36)) to GLP1R.
Human GLP1R cAMP Agonist Assay
The agonist activity of compounds was determined using the GloSensor™ cAMP Assay (Promega Corp.), which measures changes in the intracellular concentration of cAMP after ligand activation of GPCRs. The assay uses a biosensor encoded by pGloSensor™-22F cAMP plasmid (Promega, cat #E2301) with cAMP binding domains fused to a mutant form of Photinus pyralis luciferase. Binding to cAMP causes conformational changes that promote large increases in light output, which can be measured by a luminescence detector. HEK293-SNAP-hGLP1R-GloSensor cells stably overexpressing the human GLP1 receptor (hGLP1R) and pGloSensor™-22F were seeded in white 384-well poly-D-Lysine coated plates (Greiner Bio One, cat #781945) in CO2-independent media (Gibco cat #18045-088 with 1.0% FBS, 2 mM L-glutamine, penicillin and streptomycin) and incubated overnight at 37° C., 5% CO2 with humidity. The assay was started the following morning by adding an equal volume of CO2-independent media containing 4% v/v dilution of the GloSensor substrate (Promega, cat #E1291) to all wells. The cell plate was incubated at rt for 2 h in the dark. The Biomek 7 (Beckman Coulter) instrument was used for the liquid handling steps. To generate duplicate dose response curves, 3-fold serially diluted compounds were added in to the cell assay plate to a final volume of 60 μL with final concentrations ranging from 30 μM through 0.06 μM in CO2-independent media containing 0.1% BSA, 0.5 mM IBMX and 0.4% DMSO. In the same plate and assay buffer as the tested compounds, were EC100 control wells containing GLP1 (7-36) peptide (Bachem, cat #H-6795) at a final concentration of 2 nM and also EC0 control wells containing no peptide. This plate was incubated at rt in the dark for 12 min after adding the compounds to the cells. Luminescence was then measured with an Envision 2104 Multilabel reader with “TRF Light Unit, 337 nm” (PerkinElmer) using the Ultra-Sensitive protocol setting “384-well US luminescence detector” with the 384-well luminescence aperture, 0.1 seconds per well. cAMP activity was calculated as percent of the GLP1 (7-36) EC100 control wells: [(sample signal−mean EC0 signal)/(mean EC100 of GLP1 (7-36) signal−mean EC0 signal)}*100. Curve fitting for EC50 determinations was performed in the Helios module of the software package DAVID. The 4-parameter logistic model, Hill slope was used: y=Ainf+(A0−Ainf)/(1+(x/AC50)^Hill Slope) where y is the functional response; x is the compound concentration; A0 is the minimum value (at 0 dose); Ainf is the maximum value (at infinite dose); AC50 corresponds to the point of inflection (i.e. the point on the sigmoid shaped curve halfway between A0 and Ainf). The EC50 value was represented by the AC50 value calculated from Helios in μM. Emax is the maximal activity detected within the concentration range, derived from the fitted curve. […]

[1] = Pharmacokinetics in C57BL/6 mice (i.v. and oral)
Experimental: Blood concentration versus time profiles were obtained from 2 groups of 3 male mice. The compound was administered intravenously (i.v.) by bolus injection (5 mL/kg) at a dose of 1 mg/kg in N-methyl-2-pyrrolidone (10%) and 4% bovine serum albumins (BSA) in phosphate-buffered saline (PBS) (90%) or orally administered at a dose of 3 mg/kg (10 mL/kg) as a homogenous suspension of Water (99.4%), Tween 80 (0.1%) and methylcellulose (0.5%). Following compound administration, blood (10 μL/time point) were collected by puncture of the tail vein into ethylenediaminetetraacetic (EDTA)-coated tubes, at 0.083 (i.v. only), 0.25, 0.5, 1, 3, 7, & 24 hours post dose.
Bioanalysis: An aliquot of 10 μL of blood sample and matrix calibration standards were added to a 96-well plate. The samples were extracted using a protein precipitation procedure with addition of 80 μL acetonitrile containing internal standard. The samples were vortexed and centrifuged at 3000 rpm for 5 minutes. A 70 μL aliquot of supernatant was transferred to a clean 96-well plate and a 70 μL of water was added to each well and vortexed. Samples were analyzed and quantified by LC-MS/MS using the conditions outlined below.
• Mass Spectrometer: AP16500+ • Liquid Chromatograph: Agilent 1290 for Compound 3; Shimadzu LC30 AD for Compound 5 • Autosampler (ALS): Agilent 1290 for Compound 3; Shimadzu SIL30AC for Compound 5
• LC Column Acquity BEH C18, 50×2.1 mm, 1.7 μm • Solvent A: • 5:95:0.1 (v:v:v) Acetonitrile:Water:Formic Acid for Compound 3 • 100:0.1 (v:v) Water:Formic acid for Compound 5 • Solvent B: • 50:50:0.1 (v:v:v) Acetonitrile:Methanol:Formic Acid for Compound 3 • 100:0.1 (v:v) Acetonitrile:Formic acid for Compound 5 • Injection Volume [μL]: 1 for Compound 5; 20 for Compound 3 • Column Oven Temp. [° C.]: 50 Compound 3; 40 for Compound 5 • ALS Temp. [° C.]: 5
• Ion Source: TIS • Polarity: Positive • Temperature: 550 • Gas 1: 55 • Gas 2: 55 • Curtain Gas: 20 • Ion Spray Voltage [V]: 5500 for Compound 5; 4500 for Compound 3 • CAD Gas: 9

[2] = male, C57BL/6, mouse, in vivo, iv, 1 mg/kg
[3] = male, C57BL/6, mouse, in vivo, po, 3 mg/kg

Chain of human GLP1R (hGLP1R) (P43220 24-463): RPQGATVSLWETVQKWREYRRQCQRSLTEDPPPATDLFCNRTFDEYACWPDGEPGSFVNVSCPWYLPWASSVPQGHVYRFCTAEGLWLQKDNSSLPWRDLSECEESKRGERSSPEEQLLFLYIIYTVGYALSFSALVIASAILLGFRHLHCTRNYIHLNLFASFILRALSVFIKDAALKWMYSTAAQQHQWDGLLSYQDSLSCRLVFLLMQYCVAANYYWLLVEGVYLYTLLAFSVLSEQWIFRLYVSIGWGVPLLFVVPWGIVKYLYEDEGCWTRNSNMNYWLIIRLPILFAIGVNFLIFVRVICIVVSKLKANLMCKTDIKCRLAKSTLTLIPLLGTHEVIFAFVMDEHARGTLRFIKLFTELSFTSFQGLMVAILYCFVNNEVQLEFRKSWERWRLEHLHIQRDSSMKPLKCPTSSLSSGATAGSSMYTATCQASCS

Cc1c(C(=O)O)nc(CN2CCC(c3cccc4c3O[C@@](C)(c3ccc(Cl)cc3F)O4)CC2)n1C[C@@H]1CCO1 [Compound C-4, 2-((4-((S)-2-(4-chloro-2-fluorophenyl)-2-methylbenzo[d][1,3]dioxol-4-yl)piperidin-1-yl)methyl)-5-methyl-1-(((S)-oxetan-2-yl)methyl)-1H-imidazole-4-carboxylic acid]
Emax (human GLP1R (hGLP1R)): 109%
EC50 (human GLP1R (hGLP1R)): 8.28 nM

Cc1nc(CN2CCC(c3cccc4c3O[C@@](C)(c3ccc(Cl)cc3F)O4)CC2)n(C[C@@H]2CCO2)c1C1CC1C(=O)O (stereo partly drawn) [Compound C-9]
Emax (human GLP1R (hGLP1R)): 109%
EC50 (human GLP1R (hGLP1R)): 0.418 nM

Cc1nc(CN2CCC(c3cccc4c3O[C@@](C)(c3ccc(Cl)cc3F)O4)CC2)n(C[C@@H]2CCO2)c1C12CC(C(=O)O)(C1)C2 [Compound C-23a, 3-(2-((4-((S)-2-(4-chloro-2-fluorophenyl)-2-methylbenzo[d][1,3]dioxol-4-yl)piperidin-1-yl)methyl)-4-methyl-1-(((S)-oxetan-2-yl)methyl)-1H-imidazol-5-yl)bicyclo[1.1.1]pentane-1-carboxylic acid]
Emax (human GLP1R (hGLP1R)): 107%
EC50 (human GLP1R (hGLP1R)): 1.2 nM

C[C@]1(c2ccc(Cl)cc2F)Oc2cccc(C3CCN(Cc4nc(-c5nnn[nH]5)c(C(F)(F)F)n4C[C@@H]4CCO4)CC3)c2O1 [Compound C-25, 4-((S)-2-(4-chloro-2-fluorophenyl)-2-methylbenzo[d][1,3]dioxol-4-yl)-1-((1-(((S)-oxetan-2-yl)methyl)-4-(1H-tetrazol-5-yl)-5-(trifluoromethyl)-1H-imidazol-2-yl)methyl)piperidine]
Emax (human GLP1R (hGLP1R)): 110%
EC50 (human GLP1R (hGLP1R)): 8.63 nM

CCc1nc(CN2CCC(c3cccc4c3O[C@@](C)(c3ccc(Cl)cc3F)O4)CC2)n(C[C@@H]2CCO2)c1C(=O)O [Compound C-27, 2-((4-((S)-2-(4-chloro-2-fluorophenyl)-2-methylbenzo[d][1,3]dioxol-4-yl)piperidin-1-yl)methyl)-4-ethyl-1-(((S)-oxetan-2-yl)methyl)-1H-imidazole-5-carboxylic acid]
Emax (human GLP1R (hGLP1R)): 113%
EC50 (human GLP1R (hGLP1R)): 2.96 nM

C[C@]1(c2ccc(Cl)cc2F)Oc2cccc(C3CCN(Cc4nc(-c5ccc(F)cc5)c(C#CC(=O)O)n4C[C@@H]4CCO4)CC3)c2O1 [Compound C-29, 3-(2-((4-((S)-2-(4-chloro-2-fluorophenyl)-2-methylbenzo[d][1,3]dioxol-4-yl)piperidin-1-yl)methyl)-4-(4-fluorophenyl)-1-(((S)-oxetan-2-yl)methyl)-1H-imidazol-5-yl)propiolic acid]
Emax (human GLP1R (hGLP1R)): 104%
EC50 (human GLP1R (hGLP1R)): 0.0473 nM

C[C@]1(c2ccc(Cl)cc2F)Oc2cccc(C3CCN(Cc4nc5ccc(C(=O)O)cc5n4C[C@@H]4CCO4)CC3)c2O1 [compound 1, 2-((4-((S)-2-(4-chloro-2-fluorophenyl)-2-methylbenzo[d][1,3]dioxol-4-yl)piperidin-1-yl)methyl)-1-(((S)-oxetan-2-yl)methyl)-1H-benzo[d]imidazole-6-carboxylic acid, reference compound]
BAV ([1]; male C57BL/6 mice, 3 mg/kg oral dose vs 1 mg/kg i.v.): 50.7%
AUC(0-inf) [1, 2]: 1.19 ± 0.205 µM·h
Vd [1, 2]: 2.13 ± 0.434 L/kg
clearance [1, 2]: 24.1 ± 4.52 mL/min/kg
half-life [1, 2]: 1.25 ± 0.02 h
AUC(0-inf) [1, 3]: 1.98 µM·h
Cmax [1, 3]: 430 ± 53.4 nM
Tmax [1, 3]: 1 h
half-life [1, 3]: 3.19 h

— patent publication US20240182456A1, “2-((4-((S)-2-(4-CHLORO-2-FLUOROPHENYL)-2-METHYLBENZO[D][1,3]DIOXOL-4-YL)PIPERIDIN-1-YL)METHYL)-1-(((S)-OXETAN-2-YL)METHYL)-1H-IMIDAZOLE DERIVATIVES AS ACTIVATORS OF THE GLP1 RECEPTOR FOR THE TREATMENT OF OBESITY” (Novartis AG, priority 2021, published 2024)
